We go through nine molecules from patent US20220324835A1 (Nurix Therapeutics, Inc., priority 2018, published 2022).

The structures appear in SMILES notation.

Assay [1] relates to T-cell. As to the kind of experiment: IL-2 secretion from T-cells stimulated with anti-CD3 antibody alone (Biological Example 2). Format: cell-based. As to conditions: primary human total T-cells, read-out: IL-2 secretion, Anti-CD3 stimulation, fold change over baseline; for fold induction at 1 µM: 1 μM compound; for fold induction at 8 µM: 8 μM compound.
Assay [2] deals with T-cell. As to the kind of experiment: CD25 cell surface staining on T-cells stimulated with anti-CD3 antibody alone (Biological Example 2). The assay is classed as cell-based. As to conditions: primary human total T-cells, baseline = anti-CD3/anti-CD28 stimulated cells without inhibitor, read-out: CD25 staining, Anti-CD3 stimulation, fold change over baseline; for fold induction at 1 µM: 1 μM compound; for fold induction at 8 µM: 8 μM compound.

Assay [3] addresses T1, Cbl-b (Homo sapiens, UniProt Q13191). As to the kind of experiment: Cbl-b activity assay (Cbl-b inhibition assay), TR-FRET of Cbl-b interaction with UbcH5B-Ub. Format: biochemical. As to conditions: assay buffer with 100 mM NaCl, 60 nM Src kinase; read-out: Cbl-b activity IC50. In a few lines:
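UbcH5B (C85K) conjugated to N-terminally Bodipy-Fluorescein-labeled ubiquitin served as the fluorescent partner. After compound preincubation, Src kinase (60 nM) with 1 mM ATP and 5 mM MgCl2 (final) was added for 1.5 h, followed by a further 1 h incubation. Some values were obtained with 50 mM NaCl and 30 nM Src.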
(In TR-FRET formats the signal depends on donor and acceptor labels being close together.)

Assay [4] concerns T-cell. Kind of assay: IL-2 secretion from T-cells co-stimulated with anti-CD3 and anti-CD28 antibody (Biological Example 2). The assay is classed as cell-based, human. As to conditions: Homo sapiens, T-cell, primary human total T-cells, baseline = anti-CD3/anti-CD28 stimulated cells without inhibitor, read-out: IL-2 secretion, Anti-CD3/Anti-CD28 stimulation, fold change over baseline; for fold induction at 0.3 µM: 0.3 μM compound; for fold induction at 1 µM: 1 μM compound; for fold induction at 4 µM: 4 μM compound. An outline of the steps: (§1)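 T-cells were stimulated with anti-CD3 antibody alone or with anti-CD28 antibody, in the presence or absence of Cbl-b inhibitor. IL-2 secretion or CD25 surface staining was measured, and values expressed as fold over the uninhibited baseline […].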

Assay [5] relates to T-cell. As to the kind of experiment: CD25 cell surface staining on T-cells co-stimulated with anti-CD3 and anti-CD28 antibody (Biological Example 2). The assay is classed as cell-based, human. As to conditions: Homo sapiens, T-cell, primary human total T-cells, baseline = anti-CD3/anti-CD28 stimulated cells without inhibitor, read-out: CD25 staining, Anti-CD3/Anti-CD28 stimulation, fold change over baseline; for fold induction at 0.3 µM: 0.3 μM compound; for fold induction at 1 µM: 1 μM compound; for fold induction at 4 µM: 4 μM compound. An outline of the steps: as §1

Assay [6] concerns the target T1, Cbl-b. Kind of assay: Cbl-b inhibition assay (Cbl-b activity assay, FRET, Biological Example 1; 100 mM NaCl, 60 nM Src kinase). The assay is classed as biochemical. As to conditions: upper bound stated in text lists; read-out: IC50 values in the Cbl-b inhibition assay of Biological Example 1. In a few lines: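 Binding-based Cbl-b activity assay. Src-phosphorylated, N-terminally biotin-Avi-tagged Cbl-b recruits labelled UbcH5B-Ub, and proximity to streptavidin-terbium yields FRET.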

T1 sequence (Q13191 36-427): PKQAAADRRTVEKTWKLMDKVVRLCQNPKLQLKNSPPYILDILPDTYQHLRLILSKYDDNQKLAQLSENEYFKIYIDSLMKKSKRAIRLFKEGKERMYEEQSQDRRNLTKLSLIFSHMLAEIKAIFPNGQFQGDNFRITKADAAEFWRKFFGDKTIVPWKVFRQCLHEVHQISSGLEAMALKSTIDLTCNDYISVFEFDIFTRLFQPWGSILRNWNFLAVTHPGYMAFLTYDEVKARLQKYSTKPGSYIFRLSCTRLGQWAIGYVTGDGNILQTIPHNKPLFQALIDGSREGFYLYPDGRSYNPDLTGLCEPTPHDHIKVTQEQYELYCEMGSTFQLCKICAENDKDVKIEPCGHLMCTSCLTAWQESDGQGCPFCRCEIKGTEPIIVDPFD

As usually defined, the IC50 is the concentration at which inhibition is half-maximal. For `C[C@@H](c1cccc(N2Cc3c(cccc3C(F)(F)F)C2=O)c1)[C@H](F)c1nncn1C` (racemic) [Compound 473, 2-(3-((1S,2S and 1R,2R)-1-fluoro-1-(4-methyl-4H-1,2,4-triazol-3-yl)propan-2-yl)phenyl)-4-(trifluoromethyl)isoindolin-1-one], the fold induction at 1 µM in the assay on T-cell [1] lay in the range of 0.051 to 0.1; with T-cell [2] it was 0.601 to 0.8; with T-cell [4], 1.01 to 2.5; in the assay with T-cell [5], 1.01 to 1.3. Also, the figures for the fold induction at 8 µM in the assay on T-cell [1] and in the assay with T-cell [2] were 0.151 to 0.2 and more than 1, respectively. The IC50 on Cbl-b [3] lay within 301 to 1000 nM. For the same molecule, the fold induction at 0.3 µM in the assay with T-cell [4] lay within 1.01 to 2.5; in the assay with T-cell [5] it was 1.01 to 1.3. Further, the results for the fold induction at 4 µM in the assay on T-cell [4] and with T-cell [5] were 2.51 to 5 and 1.01 to 1.3, respectively.

Regarding `CN1CC[C@@H](O)[C@@H](Cc2cc3c(c(C(F)(F)F)c2)CN(c2cccc(C4(Cc5nncn5C)COC4)c2)C3=O)C1` (racemic) [Compound 532, 6-(((cis)-4-hydroxy-1-methylpiperidin-3-yl)methyl)-2-(3-(3-((4-methyl-4H-1,2,4-triazol-3-yl)methyl)oxetan-3-yl)phenyl)-4-(trifluoromethyl)isoindolin-1-one], the fold induction at 1 µM with T-cell [1] is 0.101 to 0.15; in the assay on T-cell [2], 0.801 to 1; in the assay with T-cell [4], 2.51 to 5; in the assay on T-cell [5], 1.01 to 1.3. Further, the IC50 is not above 100 nM at Cbl-b [6] and less than 100 nM on Cbl-b [3]. The fold induction at 0.3 µM was in the range of 1.01 to 2.5 with T-cell [4] and 1.01 to 1.3 with T-cell [5].

Regarding `Cn1cnnc1CC1(c2cccc(N3Cc4c(cc(CN5CC[C@H]6C[C@H]65)cc4C(F)(F)F)C3=O)c2)COC1` (single isomer, unassigned) [Compound 486a], the fold induction at 1 µM in the assay with T-cell [1] is more than 0.201; in the assay with T-cell [2] it was more than 1; with T-cell [4] it was more than 7.5; with T-cell [5], 1.51 to 1.75. In addition, the results for the IC50 on Cbl-b [6] and at Cbl-b [3] were not above 100 nM and less than 100 nM, respectively. Besides, the fold induction at 0.3 µM in the assay with T-cell [4] was more than 7.5; in the assay on T-cell [5], 1.51 to 1.75.

Take `C[C@@H](c1cccc(N2Cc3c(cccc3C(F)(F)F)C2=O)c1)C(F)c1nncn1C` (stereo in doubt) [Compound 474, 2-(3-((1S, 2S)-1-fluoro-1-(4-methyl-4H-1,2,4-triazol-3-yl)propan-2-yl)phenyl)-4-(trifluoromethyl)isoindolin-1-one]: in the assay with T-cell [1], the fold induction at 1 µM fell in the range of 0.051 to 0.1 and the fold induction at 8 µM is more than 0.201. Moreover, in the assay on T-cell [2], the fold induction at 1 µM is 0.601 to 0.8 and the fold induction at 8 µM is more than 1. In addition, in the assay with T-cell [4], the fold induction at 0.3 µM lay within 1.01 to 2.5, the fold induction at 1 µM lay in the range of 1.01 to 2.5 and the fold induction at 4 µM lay within 2.51 to 5. In addition, in the assay on T-cell [5], the fold induction at 0.3 µM was in the range of 1.01 to 1.3, the fold induction at 1 µM fell in the range of 1.01 to 1.3 and the fold induction at 4 µM was in the range of 1.01 to 1.3.

Consider `Cn1cnnc1C(F)[C@](C)(F)c1cccc(N2Cc3c(cccc3C(F)(F)F)C2=O)c1` (stereo in doubt) [Compound 478a, 2-(3-((1S,2R)-1,2-difluoro-1-(4-methyl-4H-1,2,4-triazol-3-yl)propan-2-yl)phenyl)-4-(trifluoromethyl)isoindolin-1-one], for which, in the assay with T-cell [1], the fold induction at 1 µM was less than 0.05 and the fold induction at 8 µM is 0.051 to 0.1. In addition, in the assay with T-cell [2], the fold induction at 1 µM was less than 0.6 and the fold induction at 8 µM lay in the range of 0.601 to 0.8. At Cbl-b [3], the IC50 fell in the range of 301 to 1000 nM. In addition, in the assay with T-cell [4], the fold induction at 0.3 µM is less than 1, the fold induction at 1 µM is less than 1 and the fold induction at 4 µM was less than 1. Also, in the assay on T-cell [5], the fold induction at 0.3 µM is less than 1, the fold induction at 1 µM is less than 1 and the fold induction at 4 µM was 1.01 to 1.3.

On to `Cn1cnnc1[C@@H](F)[C@](C)(F)c1cccc(N2Cc3c(cc(C4CC4)cc3C(F)(F)F)C2=O)c1` (stereo in doubt) [Compound 482, 6-cyclopropyl-2-[3-[(1R,2R)-1,2-difluoro-1-(4-methyl-4H-1,2,4-triazol-3-yl)propan-2-yl]phenyl]-4-(trifluoromethyl)-2,3-dihydro-1H-isoindol-1-one], for which the fold induction at 1 µM in the assay with T-cell [1] lay within 0.051 to 0.1; with T-cell [2], 0.601 to 0.8; with T-cell [4], 1.01 to 2.5; in the assay with T-cell [5], 1.01 to 1.3. Besides, the fold induction at 8 µM with T-cell [1] was in the range of 0.051 to 0.1; in the assay on T-cell [2] it was 0.801 to 1. For the same molecule, the IC50 on Cbl-b [3] is 301 to 1000 nM. Also, the fold induction at 0.3 µM in the assay with T-cell [4] is less than 1; in the assay with T-cell [5], 1.01 to 1.3. For the same molecule, the fold induction at 4 µM lay within 1.01 to 2.5 with T-cell [4] and 1.01 to 1.3 in the assay on T-cell [5].

Take `Cn1cnnc1C(F)(F)[C@](C)(F)c1cccc(N2Cc3c(cc(C(=O)N4CC(C(F)F)C4)cc3C(F)(F)F)C2=O)c1` [Compound 439, (R)-6-(3-(difluoromethyl)azetidine-1-carbonyl)-2-(3-(1,1,2-trifluoro-1-(4-methyl-4H-1,2,4-triazol-3-yl)propan-2-yl)phenyl)-4-(trifluoromethyl)isoindolin-1-one]: in the assay on T-cell [1], the fold induction at 1 µM was in the range of 0.051 to 0.1 and the fold induction at 8 µM was in the range of 0.051 to 0.1. Besides, in the assay with T-cell [2], the fold induction at 1 µM is 0.601 to 0.8 and the fold induction at 8 µM fell in the range of 0.801 to 1. The IC50 on Cbl-b [3] lay in the range of 301 to 1000 nM. In the assay with T-cell [4], the fold induction at 0.3 µM lay in the range of 1.01 to 2.5, the fold induction at 1 µM fell in the range of 1.01 to 2.5 and the fold induction at 4 µM lay within 1.01 to 2.5. In the assay on T-cell [5], the fold induction at 0.3 µM fell in the range of 1.01 to 1.3, the fold induction at 1 µM is 1.01 to 1.3 and the fold induction at 4 µM lay in the range of 1.01 to 1.3.

As for `Cn1cnnc1C(F)(F)[C@@](C)(F)c1cccc(N2Cc3c(cc(CN4CC[C@H](F)C4)cc3C(F)(F)F)C2=O)c1` [Compound 449, 6-(((S)-3-fluoropyrrolidin-1-yl)methyl)-2-(3-((S)-1,1,2-trifluoro-1-(4-methyl-4H-1,2,4-triazol-3-yl)propan-2-yl)phenyl)-4-(trifluoromethyl)isoindolin-1-one], in the assay on T-cell [1], the fold induction at 1 µM lay in the range of 0.051 to 0.1 and the fold induction at 8 µM lay within 0.051 to 0.1. Moreover, in the assay on T-cell [2], the fold induction at 1 µM was 0.601 to 0.8 and the fold induction at 8 µM was in the range of 0.801 to 1. Besides, the IC50 at Cbl-b [3] is 301 to 1000 nM. Moreover, in the assay with T-cell [4], the fold induction at 0.3 µM is less than 1, the fold induction at 1 µM is less than 1 and the fold induction at 4 µM was 1.01 to 2.5. Also, in the assay with T-cell [5], the fold induction at 0.3 µM is less than 1, the fold induction at 1 µM is less than 1 and the fold induction at 4 µM lay in the range of 1.01 to 1.3.

As for `CC(Cc1nncn1C)c1cc(C2CCC2)cc(N2Cc3c(cccc3C(F)(F)F)C2=O)c1` (centres unmarked) [Compound 476, 2-(3-cyclobutyl-5-(1-(4-methyl-4H-1,2,4-triazol-3-yl)propan-2-yl)phenyl)-4-(trifluoromethyl)isoindolin-1-one], the fold induction at 1 µM was 0.051 to 0.1 with T-cell [1], 0.601 to 0.8 with T-cell [2], 1.01 to 2.5 with T-cell [4] and 1.01 to 1.3 in the assay on T-cell [5]. The fold induction at 8 µM with T-cell [1] was in the range of 0.051 to 0.1; in the assay on T-cell [2] it was 0.801 to 1. At Cbl-b [3], the IC50 is 301 to 1000 nM. For the same molecule, the fold induction at 0.3 µM in the assay on T-cell [4] lay in the range of 1.01 to 2.5; in the assay on T-cell [5] it was 1.01 to 1.3. Moreover, the values for the fold induction at 4 µM with T-cell [4] and with T-cell [5] were 1.01 to 2.5 and 1.01 to 1.3, respectively.
